Measurements as given in BigSolDB 2.1.

On1nnc2ccccc21
Conditions | solubility (mole fraction)
in 1,4-dioxane, 288.15 K | 0.0145
in 1,4-dioxane, 290.65 K | 0.0158
in 1,4-dioxane, 293.15 K | 0.0171
in 1,4-dioxane, 295.65 K | 0.0187
in 1,4-dioxane, 298.15 K | 0.0202
in 1,4-dioxane, 300.65 K | 0.0225
in 1,4-dioxane, 303.15 K | 0.0247
in 1,4-dioxane, 305.65 K | 0.0272
in 1,4-dioxane, 308.15 K | 0.0298
in 1,4-dioxane, 310.65 K | 0.0331
in 1,4-dioxane, 313.15 K | 0.0364
in 2-butanone, 278.15 K | 0.0157
in 2-butanone, 280.65 K | 0.0169
in 2-butanone, 283.15 K | 0.0181
in 2-butanone, 285.65 K | 0.0195
in 2-butanone, 288.15 K | 0.021
in 2-butanone, 290.65 K | 0.0225
in 2-butanone, 293.15 K | 0.0241
in 2-butanone, 295.65 K | 0.0259
in 2-butanone, 298.15 K | 0.0278
in 2-butanone, 300.65 K | 0.0299
in 2-butanone, 303.15 K | 0.0323
in 2-butanone, 305.65 K | 0.0347
in 2-butanone, 308.15 K | 0.0372
in 2-butanone, 310.65 K | 0.0402
in 2-butanone, 313.15 K | 0.0433
in DMF, 278.15 K | 0.0412
in DMF, 280.65 K | 0.0464
in DMF, 283.15 K | 0.0522
in DMF, 285.65 K | 0.0587
in DMF, 288.15 K | 0.0646
in DMF, 290.65 K | 0.072
in DMF, 293.15 K | 0.0794
in DMF, 295.65 K | 0.0884
in DMF, 298.15 K | 0.098
in DMF, 300.65 K | 0.109
in DMF, 303.15 K | 0.121
in DMF, 305.65 K | 0.134
in DMF, 308.15 K | 0.148
in DMF, 310.65 K | 0.164
in DMF, 313.15 K | 0.18
in DMSO, 278.15 K | 0.0337
in DMSO, 280.65 K | 0.0377
in DMSO, 283.15 K | 0.0421
in DMSO, 285.65 K | 0.0475
in DMSO, 288.15 K | 0.0529
in DMSO, 290.65 K | 0.0592
in DMSO, 293.15 K | 0.0664
in DMSO, 295.65 K | 0.0738
in DMSO, 298.15 K | 0.082
in DMSO, 300.65 K | 0.0921
in DMSO, 303.15 K | 0.103
in DMSO, 305.65 K | 0.114
in DMSO, 308.15 K | 0.128
in DMSO, 310.65 K | 0.142
in DMSO, 313.15 K | 0.157
in acetone, 278.15 K | 0.0139
in acetone, 280.65 K | 0.0149
in acetone, 283.15 K | 0.016
in acetone, 285.65 K | 0.0171
in acetone, 288.15 K | 0.0184
in acetone, 290.65 K | 0.0198
in acetone, 293.15 K | 0.0214
in acetone, 295.65 K | 0.0229
in acetone, 298.15 K | 0.0246
in acetone, 300.65 K | 0.0266
in acetone, 303.15 K | 0.0285
in acetone, 305.65 K | 0.0306
in acetone, 308.15 K | 0.033
in acetone, 310.65 K | 0.0355
in acetone, 313.15 K | 0.0383
in acetonitrile, 278.15 K | 0.00229
in acetonitrile, 280.65 K | 0.00249
in acetonitrile, 283.15 K | 0.00271
in acetonitrile, 285.65 K | 0.00295
in acetonitrile, 288.15 K | 0.00322
in acetonitrile, 290.65 K | 0.00348
in acetonitrile, 293.15 K | 0.0038
in acetonitrile, 295.65 K | 0.00414
in acetonitrile, 298.15 K | 0.00449
in acetonitrile, 300.65 K | 0.00488
in acetonitrile, 303.15 K | 0.00531
in acetonitrile, 305.65 K | 0.0058
in acetonitrile, 308.15 K | 0.00631
in acetonitrile, 310.65 K | 0.00685
in acetonitrile, 313.15 K | 0.00749
in ethanol, 278.15 K | 0.0318
in ethanol, 280.65 K | 0.0331
in ethanol, 283.15 K | 0.0355
in ethanol, 285.65 K | 0.0377
in ethanol, 288.15 K | 0.0406
in ethanol, 290.65 K | 0.0433
in ethanol, 293.15 K | 0.0462
in ethanol, 295.65 K | 0.0493
in ethanol, 298.15 K | 0.0528
in ethanol, 300.65 K | 0.0566
in ethanol, 303.15 K | 0.0605
in ethanol, 305.65 K | 0.0651
in ethanol, 308.15 K | 0.0697
in ethanol, 310.65 K | 0.0746
in ethanol, 313.15 K | 0.0802
in ethyl acetate, 278.15 K | 0.00505
in ethyl acetate, 280.65 K | 0.00555
in ethyl acetate, 283.15 K | 0.00606
in ethyl acetate, 285.65 K | 0.00676
in ethyl acetate, 288.15 K | 0.00745
in ethyl acetate, 290.65 K | 0.00821
in ethyl acetate, 293.15 K | 0.00908
in ethyl acetate, 295.65 K | 0.0101
in ethyl acetate, 298.15 K | 0.0115
in ethyl acetate, 300.65 K | 0.013
in ethyl acetate, 303.15 K | 0.0149
in ethyl acetate, 305.65 K | 0.0169
in ethyl acetate, 308.15 K | 0.0193
in ethyl acetate, 310.65 K | 0.0219
in ethyl acetate, 313.15 K | 0.0247
in isooctanol, 278.15 K | 0.0108
in isooctanol, 280.65 K | 0.0112
in isooctanol, 283.15 K | 0.0115
in isooctanol, 285.65 K | 0.0119
in isooctanol, 288.15 K | 0.0123
in isooctanol, 290.65 K | 0.0127
in isooctanol, 293.15 K | 0.0132
in isooctanol, 295.65 K | 0.0137
in isooctanol, 298.15 K | 0.0143
in isooctanol, 300.65 K | 0.0149
in isooctanol, 303.15 K | 0.0154
in isooctanol, 305.65 K | 0.0161
in isooctanol, 308.15 K | 0.0168
in isooctanol, 310.65 K | 0.0175
in isooctanol, 313.15 K | 0.0182
in isopentanol, 278.15 K | 0.0109
in isopentanol, 280.65 K | 0.0114
in isopentanol, 283.15 K | 0.0118
in isopentanol, 285.65 K | 0.0123
in isopentanol, 288.15 K | 0.0127
in isopentanol, 290.65 K | 0.0132
in isopentanol, 293.15 K | 0.0137
in isopentanol, 295.65 K | 0.0143
in isopentanol, 298.15 K | 0.0148
in isopentanol, 300.65 K | 0.0155
in isopentanol, 303.15 K | 0.0161
in isopentanol, 305.65 K | 0.0167
in isopentanol, 308.15 K | 0.0174
in isopentanol, 310.65 K | 0.0181
in isopentanol, 313.15 K | 0.0188
in isopropanol, 278.15 K | 0.0248
in isopropanol, 280.65 K | 0.0261
in isopropanol, 283.15 K | 0.0281
in isopropanol, 285.65 K | 0.0301
in isopropanol, 288.15 K | 0.032
in isopropanol, 290.65 K | 0.0341
in isopropanol, 293.15 K | 0.0367
in isopropanol, 295.65 K | 0.0392
in isopropanol, 298.15 K | 0.0421
in isopropanol, 300.65 K | 0.0451
in isopropanol, 303.15 K | 0.0481
in isopropanol, 305.65 K | 0.0515
in isopropanol, 308.15 K | 0.0553
in isopropanol, 310.65 K | 0.0592
in isopropanol, 313.15 K | 0.0637
in methanol, 278.15 K | 0.0223
in methanol, 280.65 K | 0.0239
in methanol, 283.15 K | 0.0254
in methanol, 285.65 K | 0.0274
in methanol, 288.15 K | 0.0294
in methanol, 290.65 K | 0.0314
in methanol, 293.15 K | 0.0336
in methanol, 295.65 K | 0.0358
in methanol, 298.15 K | 0.0386
in methanol, 300.65 K | 0.0415
in methanol, 303.15 K | 0.0445
in methanol, 305.65 K | 0.048
in methanol, 308.15 K | 0.0522
in methanol, 310.65 K | 0.0562
in methanol, 313.15 K | 0.0609
in n-heptanol, 278.15 K | 0.0119
in n-heptanol, 280.65 K | 0.0123
in n-heptanol, 283.15 K | 0.0129
in n-heptanol, 285.65 K | 0.0134
in n-heptanol, 288.15 K | 0.014
in n-heptanol, 290.65 K | 0.0146
in n-heptanol, 293.15 K | 0.0152
in n-heptanol, 295.65 K | 0.0158
in n-heptanol, 298.15 K | 0.0165
in n-heptanol, 300.65 K | 0.0173
in n-heptanol, 303.15 K | 0.0182
in n-heptanol, 305.65 K | 0.019
in n-heptanol, 308.15 K | 0.02
in n-heptanol, 310.65 K | 0.021
in n-heptanol, 313.15 K | 0.022
in n-hexanol, 278.15 K | 0.0114
in n-hexanol, 280.65 K | 0.0118
in n-hexanol, 283.15 K | 0.0123
in n-hexanol, 285.65 K | 0.0129
in n-hexanol, 288.15 K | 0.0134
in n-hexanol, 290.65 K | 0.0139
in n-hexanol, 293.15 K | 0.0145
in n-hexanol, 295.65 K | 0.0152
in n-hexanol, 298.15 K | 0.0159
in n-hexanol, 300.65 K | 0.0166
in n-hexanol, 303.15 K | 0.0174
in n-hexanol, 305.65 K | 0.0182
in n-hexanol, 308.15 K | 0.019
in n-hexanol, 310.65 K | 0.0198
in n-hexanol, 313.15 K | 0.0206
in n-propanol, 278.15 K | 0.0297
in n-propanol, 280.65 K | 0.0319
in n-propanol, 283.15 K | 0.034
in n-propanol, 285.65 K | 0.0362
in n-propanol, 288.15 K | 0.0387
in n-propanol, 290.65 K | 0.0412
in n-propanol, 293.15 K | 0.044
in n-propanol, 295.65 K | 0.0472
in n-propanol, 298.15 K | 0.0502
in n-propanol, 300.65 K | 0.0535
in n-propanol, 303.15 K | 0.0573
in n-propanol, 305.65 K | 0.0612
in n-propanol, 308.15 K | 0.0655
in n-propanol, 310.65 K | 0.0698
in n-propanol, 313.15 K | 0.0749
in toluene, 278.15 K | 1.1e-05
in toluene, 280.65 K | 1.2e-05
in toluene, 283.15 K | 1.5e-05
in toluene, 285.65 K | 1.61e-05
in toluene, 288.15 K | 1.99e-05
in toluene, 290.65 K | 2.17e-05
in toluene, 293.15 K | 2.49e-05
in toluene, 295.65 K | 2.85e-05
in toluene, 298.15 K | 3.26e-05
in toluene, 300.65 K | 3.61e-05
in toluene, 303.15 K | 4.28e-05
in toluene, 305.65 K | 4.87e-05
in toluene, 308.15 K | 5.56e-05
in toluene, 310.65 K | 6.2e-05
in toluene, 313.15 K | 6.92e-05
